# Laboratory results as given in the NIST ThermoML archive (doi:10.1021/acs.jced.5b00122).
# ± gives the expanded uncertainty stated by the source.
# Details: 298.15 K; 101.33 kPa; Liquid; Vibrating tube method
row,mass density [kg/m3],Structure (SMILES)
1,781.214 ± 1.6,CC(C)O [propan-2-ol]
2,787.52 ± 1.6,CO [methanol]
3,787.577 ± 1.6,CCO [ethanol]
4,801.08 ± 1.6,CCCO [propan-1-ol]
5,960.892 ± 1.9,COCCO [2-methoxyethan-1-ol]
6,907.878 ± 1.8,CCCOCCO [2-propoxyethanol]
